The source of these data is US9896435B2, “N-pyrrolidinyl,N′-pyrazolyl-urea, thiourea, guanidine and cyanoguanidine compounds as TrkA kinase inhibitors” (Array BioPharma Inc., priority 2012, dated 2018).

Each structure is given as a SMILES string.

By IC50 is commonly meant the concentration that gives 50% inhibition.

Sequence of His-tagged recombinant human TrkA (P04629 440-796): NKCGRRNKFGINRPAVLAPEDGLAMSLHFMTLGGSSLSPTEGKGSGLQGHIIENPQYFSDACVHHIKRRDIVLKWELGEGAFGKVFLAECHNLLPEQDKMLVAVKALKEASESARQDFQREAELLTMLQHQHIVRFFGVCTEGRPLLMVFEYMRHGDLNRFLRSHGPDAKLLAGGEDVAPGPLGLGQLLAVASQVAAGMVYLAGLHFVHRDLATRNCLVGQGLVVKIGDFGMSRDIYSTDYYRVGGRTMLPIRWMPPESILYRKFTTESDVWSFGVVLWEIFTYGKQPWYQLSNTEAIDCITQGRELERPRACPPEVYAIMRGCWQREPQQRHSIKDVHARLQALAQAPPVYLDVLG

The assay addresses His-tagged recombinant human TrkA (Homo sapiens (Human), UniProt P04629). The experiment in a line: TrkA LanthaScreen Eu Kinase Binding Assay. Conditions: averaged IC50; LanthaScreen binding assay of Example A; read-out: TrkA Enzyme IC50. Here is the method:
TrkA binding activity was determined in a TrkA LanthaScreen™ Eu Kinase Binding Assay. 5 nM His-tagged recombinant human TrkA (6HIS tagged cytoplasmic domain from Invitrogen, Catalog No. PV3144) was incubated with 4 nM Alexa-Fluor® Tracer 236 (Invitrogen Cat. No. PV5592), 2 nM biotinylated anti-His (Invitrogen Cat. No. PV6090), and 2 nM europium-labeled Streptavidin (Invitrogen Cat. No. PV5899), in buffer (25 mM MOPS, pH 7.5, 5 mM MgCl2, 0.005% Triton X-100). Three fold serial dilutions of compounds of the invention in DMSO were added to a final percentage of 2% DMSO. After 60-minute incubation at 22° C., the reaction was measured using the EnVision mutlimode plate reader (PerkinElmer) via TR-FRET dual wavelength detection at […]. The percent of control was calculated using a ratiometric emission factor. The IC50 values were determined by fitting a four parameter model to the percent of control data.
Table A provides averaged IC50 values for compounds of the invention when tested in the assay of Example A, where A represents an averaged IC50 value<100 nM.
(In general: Time-resolved FRET reads energy transfer from a long-lived donor to a nearby acceptor.)
`COCCN1C[C@@H](NC(=O)Nc2c(C)c(-c3ccc(=O)n(C)c3)nn2-c2ccccc2)[C@H](c2ccc(F)c(Cl)c2)C1` (relative stereo) [Example 22, 1-(trans-4-(3-chloro-4-fluorophenyl)-1-(2-methoxyethyl)pyrrolidin-3-yl)-3-(4-methyl-3-(1-methyl-6-oxo-1,6-dihydropyridin-3-yl)-1-phenyl-1H-pyrazol-5-yl)urea]: the IC50 is < 100 nM.
In the case of `COCCN1C[C@@H](NC(=O)Nc2c(C)c(-c3ccc(=O)n(C)c3)nn2-c2ccccc2)[C@H](c2ccc(Cl)c(F)c2)C1` (relative stereo) [Example 23, 1-(trans-4-(4-chloro-3-fluorophenyl)-1-(2-methoxyethyl)pyrrolidin-3-yl)-3-(4-methyl-3-(1-methyl-6-oxo-1,6-dihydropyridin-3-yl)-1-phenyl-1H-pyrazol-5-yl)urea] it was < 100 nM; in that of `COCCN1C[C@@H](NC(=O)Nc2c(C)c(-c3ccc(=O)n(C)c3)nn2-c2ccccc2)[C@H](c2cc(F)cc(Cl)c2)C1` (relative stereo) [Example 24, 1-(trans-4-(3-chloro-5-fluorophenyl)-1-(2-methoxyethyl)pyrrolidin-3-yl)-3-(4-methyl-3-(1-methyl-6-oxo-1,6-dihydropyridin-3-yl)-1-phenyl-1H-pyrazol-5-yl)urea], < 100 nM; in that of `COCCN1C[C@@H](NC(=O)Nc2c(C)c(-c3ccc(=O)n(C)c3)nn2-c2ccccc2)[C@H](c2cccc(Cl)c2)C1` (relative stereo) [Example 25, 1-(trans-4-(3-chlorophenyl)-1-(2-methoxyethyl)pyrrolidin-3-yl)-3-(4-methyl-3-(1-methyl-6-oxo-1,6-dihydropyridin-3-yl)-1-phenyl-1H-pyrazol-5-yl)urea], < 100 nM.
As to `COCCN1C[C@@H](NC(=O)Nc2c(C)c(-c3ccc(C)nc3)nn2-c2ccccc2)[C@H](c2ccc(F)c(F)c2)C1` [Example 1, 1-((3S,4R)-4-(3,4-difluorophenyl)-1-(2-methoxyethyl)pyrrolidin-3-yl)-3-(4-methyl-3-(6-methylpyridin-3-yl)-1-phenyl-1H-pyrazol-5-yl)urea], the IC50 is < 100 nM.
As for `COCCN1C[C@@H](NC(=O)Nc2c(C)c(-c3cccnc3F)nn2-c2ccccc2)[C@H](c2ccc(F)c(F)c2)C1` [Example 3, 1-((3S,4R)-4-(3,4-difluorophenyl)-1-(2-methoxyethyl)pyrrolidin-3-yl)-3-(3-(2-fluoropyridin-3-yl)-4-methyl-1-phenyl-1H-pyrazol-5-yl)urea], the IC50 is < 100 nM.
With `COCCN1C[C@@H](NC(=O)Nc2c(C)c(-c3cccnc3C)nn2-c2ccccc2)[C@H](c2ccc(F)c(F)c2)C1` [Example 4, 1-((3S,4R)-4-(3,4-difluorophenyl)-1-(2-methoxyethyl)pyrrolidin-3-yl)-3-(4-methyl-3-(2-methylpyridin-3-yl)-1-phenyl-1H-pyrazol-5-yl)urea] the figure was < 100 nM.
For `COCCN1C[C@@H](NC(=O)Nc2c(C)c(-c3cncc(C)c3)nn2-c2ccccc2)[C@H](c2ccc(F)c(F)c2)C1` [Example 5, 1-((3S,4R)-4-(3,4-difluorophenyl)-1-(2-methoxyethyl)pyrrolidin-3-yl)-3-(4-methyl-3-(5-methylpyridin-3-yl)-1-phenyl-1H-pyrazol-5-yl)urea], the IC50 was < 100 nM.
In the case of `COCCN1C[C@@H](NC(=O)Nc2c(C)c(-c3cncc(C#N)c3)nn2-c2ccccc2)[C@H](c2ccc(F)c(F)c2)C1` [Example 7, 1-(3-(5-cyanopyridin-3-yl)-4-methyl-1-phenyl-1H-pyrazol-5-yl)-3-((3S,4R)-4-(3,4-difluorophenyl)-1-(2-methoxyethyl)pyrrolidin-3-yl)urea] it was < 100 nM; in that of `COCCN1C[C@@H](NC(=O)Nc2c(C)c(-c3ccc(OC)nc3)nn2-c2ccccc2)[C@H](c2ccc(F)c(F)c2)C1` [Example 8, 1-((3S,4R)-4-(3,4-difluorophenyl)-1-(2-methoxyethyl)pyrrolidin-3-yl)-3-(3-(6-methoxypyridin-3-yl)-4-methyl-1-phenyl-1H-pyrazol-5-yl)urea], < 100 nM; in that of `CCOc1ncc(-c2nn(-c3ccccc3)c(NC(=O)N[C@@H]3CN(CCOC)C[C@H]3c3ccc(F)c(F)c3)c2C)cn1` [Example 9, 1-((3S,4R)-4-(3,4-difluorophenyl)-1-(2-methoxyethyl)pyrrolidin-3-yl)-3-(3-(2-ethoxypyrimidin-5-yl)-4-methyl-1-phenyl-1H-pyrazol-5-yl)urea], < 100 nM.
Regarding `COCCN1C[C@@H](NC(=O)Nc2c(C)c(-c3cnc(C4CC4)nc3)nn2-c2ccccc2)[C@H](c2ccc(F)c(F)c2)C1` [Example 10, 1-(3-(2-cyclopropylpyrimidin-5-yl)-4-methyl-1-phenyl-1H-pyrazol-5-yl)-3-((3S,4R)-4-(3,4-difluorophenyl)-1-(2-methoxyethyl)pyrrolidin-3-yl)urea], the IC50 is < 100 nM.
As for `COCCN1C[C@@H](NC(=O)Nc2c(C)c(-c3cnc(C4CC4)nc3)nn2-c2ccccc2)[C@H](c2ccc(F)cc2)C1` [Example 11, 1-(3-(2-cyclopropylprimidin-5-yl)-4-methyl-1-phenyl-1H-pyrazol-5-yl)-3-((3S,4R)-4-(4-fluorophenyl)-1-(2-methoxyethyl)pyrrolidin-3-yl)urea], the IC50 was < 100 nM.
With `COCCN1C[C@@H](NC(=O)Nc2c(C)c(-c3cnc(OC)nc3)nn2-c2ccccc2)[C@H](c2cc(F)cc(F)c2)C1` [Example 12, 1-((3S,4R)-4-(3,5-difluorophenyl)-1-(2-methoxyethyl)pyrrolidin-3-yl)-3-(3-(2-methoxypyrimidin-5-yl)-4-methyl-1-phenyl-1H-pyrazol-5-yl)urea] the figure was < 100 nM.
Take `COCCN1C[C@@H](NC(=O)Nc2c(C)c(-c3cnc(C)nc3)nn2-c2ccccc2)[C@H](c2ccc(F)cc2)C1` [Example 13, 1-((3S,4R)-4-(4-fluorophenyl)-1-(2-methoxyethyl)pyrrolidin-3-yl)-3-(4-methyl-3-(2-methylpyrimidin-5-yl)-1-phenyl-1H-pyrazol-5-yl)urea]: the IC50 is < 100 nM.
With `CCOc1ncc(-c2nn(-c3ccccc3)c(NC(=O)N[C@@H]3CN(CCOC)C[C@H]3c3ccc(F)cc3)c2C)cn1` [Example 15, 1-(3-(2-ethoxypyrimidin-5-yl)-4-methyl-1-phenyl-1H-pyrazol-5-yl)-3-((3S,4R)-4-(4-fluorophenyl)-1-(2-methoxyethyl)pyrrolidin-3-yl)urea] the figure was < 100 nM; with `CCOc1ncc(-c2nn(-c3ccccc3)c(NC(=O)N[C@@H]3CN(CCOC)C[C@H]3c3cc(F)cc(F)c3)c2C)cn1` [Example 16, 1-((3S,4R)-4-(3,5-difluorophenyl)-1-(2-methoxyethyl)pyrrolidin-3-yl)-3-(3-(2-ethoxypyrimidin-5-yl)-4-methyl-1-phenyl-1H-pyrazol-5-yl)urea], < 100 nM; with `COCCN1C[C@@H](NC(=O)Nc2c(C)c(-c3ccc(=O)n(C)n3)nn2-c2ccccc2)[C@H](c2ccc(F)c(F)c2)C1` [Example 17, 1-((3S,4R)-4-(3,4-difluorophenyl)-1-(2-methoxyethyl)pyrrolidin-3-yl)-3-(4-methyl-3-(1-methyl-6-oxo-1,6-dihydropyridazin-3-yl)-1-phenyl-1H-pyrazol-5-yl)urea], < 100 nM.
In the case of `COCCN1C[C@@H](NC(=O)Nc2c(C)c(-c3ccc(=O)n(C)n3)nn2-c2ccccc2)[C@H](c2ccc(F)cc2)C1` [Example 18, 1-((3S,4R)-4-(4-fluorophenyl)-1-(2-methoxyethyl)pyrrolidin-3-yl)-3-(4-methyl-3-(1-methyl-6-oxo-1,6-dihydropyridazin-3-yl)-1-phenyl-1H-pyrazol-5-yl)urea] it was < 100 nM.
In the case of `COCCN1C[C@@H](NC(=O)Nc2c(C)c(-c3ccc(=O)n(C)n3)nn2-c2ccccc2)[C@H](c2cc(F)cc(F)c2)C1` [Example 19, 1-((3S,4R)-4-(3,5-difluorophenyl)-1-(2-methoxyethyl)pyrrolidin-3-yl)-3-(4-methyl-3-(1-methyl-6-oxo-1,6-dihydropyridazin-3-yl)-1-phenyl-1H-pyrazol-5-yl)urea] it was < 100 nM; in that of `COCCN1C[C@@H](NC(=O)Nc2c(C)c(-c3cnc(NC4CC4)nc3)nn2-c2ccccc2)[C@H](c2ccc(F)c(F)c2)C1` [Example 20, 1-(3-(2-(cyclopropylamino)pyrimidin-5-yl)-4-methyl-1-phenyl-1H-pyrazol-5-yl)-3-((3S,4R)-4-(3,4-difluorophenyl)-1-(2-methoxyethyl)pyrrolidin-3-yl)urea], < 100 nM; in that of `COCCN1C[C@@H](NC(=O)Nc2c(C)c(-c3cnc(NC4CC4)nc3)nn2-c2ccccc2)[C@H](c2ccc(F)cc2)C1` [Example 21, 1-(3-(2-(cyclopropylamino)pyrimidin-5-yl)-4-methyl-1-phenyl-1H-pyrazol-5-yl)-3-((3S,4R)-4-(4-fluorophenyl)-1-(2-methoxyethyl)pyrrolidin-3-yl)urea di-trifluoroacetate], < 100 nM.
As for `COCCN1C[C@@H](NC(=O)Nc2c(C)c(-c3ccc(=O)n(C)c3)nn2-c2ccccc2)[C@H](c2cc(F)c(F)c(F)c2)C1` [Example 26, 1-((3S,4R)-1-(2-methoxyethyl)-4-(3,4,5-trifluorophenyl)pyrrolidin-3-yl)-3-(4-methyl-3-(1-methyl-6-oxo-1,6-dihydropyridin-3-yl)-1-phenyl-1H-pyrazol-5-yl)urea], the IC50 was < 100 nM.
